# Data from patent US11679100B2, “Methods of enhancing immunity” (The Regents of the University of California, priority 2018, dated 2023).
# System: LLC lung tumor
# Test: LA1 treatment of subcutaneous LLC tumors
# Assay type: in vivo, mice
# Method: LA1 treatment of LLC: 7.5×10^5 LLC cells were injected subcutaneously (s.c.) into the right flank of syngeneic 6- to 8-week old WT or CD11b^−/− mice. At 5-8 days post tumor inoculation, tumor-bearing mice were divided into the following treatment groups: Vehicle (6% DMSO, 1% Tween-20 in saline), LA1 (6 mg/kg dissolved in vehicle). Vehicle and LA1 was administered by intraperitoneal injection (i.p.) daily. Tumor burden was evaluated 2-3 times a week by caliper measurements and tumor volumes were calculated using the equation (l^2×w)/2. Tumors were harvested at 3 weeks post-tumor inoculation, formalin fixed, cryopreserved in OCT, or collagenase-digested for flow cytometric analysis.
# Immunohistochemistry—Tumor samples were collected and cryopreserved in O.C.T. Sections (5 μm) were fixed in 100% cold acetone, blocked with 8% normal goat serum for 2 hours, and incubated with primary antibodies at […] for 2 hours at room temperature. Sections were washed 3 times with PBS and incubated with fluorescent secondary antibodies. Primary antibodies where: F4/80 (BM8, eBioscience), CD4 (H129.19, BD Bioscience), CD8 (53-6.7, BD Bioscience), CD31 (MEC13.1, BD Bioscience), desmin (RB0914-P1, LabVision, Thermo Scientific), and anti-smooth muscle actin (SMA) (1A4, Sigma-Aldrich). Slides were counterstained with 4′,6-diamidino-2-phenylindole (DAPI) to identify nuclei. Immunofluorescence images were collected on a Nikon microscope (Eclipse TE2000-U) and analyzed using Metamorph image capture and analysis software (Version 6.3r5, Molecular Devices). Pixels/field or cell number/field were quantified in five 100× fields from 5 biological replicates. For LA1 studies, immunohistochemical staining was quantified by counting marker positive cells in 3 different areas analyzed at 40× using a light microscope for each tumor tissue (n=4−6). Tissues that were stained with fluorochrome conjugated secondary antibodies were counter stained with DAPI and analyzed using the Zeiss 700 LSM confocal microscope and Zen software (Carl Zeiss Group, Hartford, Conn.).
# Alternatively, immunostaining was performed on formalin fixed, paraffin-embedded tumor tissues. Deparaffinized tissue sections (5 μm) were either stained with hemotoxylin-eosin or were subjected to antigen retrieval by steam heating in an acidic pH solution (Citrate-based, Vector Laboratories) prior to immune staining for α-SMA (clone 1A4, Fisher Scientific), MMP9 (polyclonal rabbit, Abcam), S100A8 (goat polyclonal (M-19), Santa Cruz), CD31 (clone RM0032-1D12, Abcam), or ARG1 (sc-18351, Santa Cruz) at 4° C. overnight. Sections were washed and incubated with the appropriate fluorochrome conjugated secondary antibody (Invitrogen Life Technologies, Grand Island, N.Y.) or biotinylated secondary antibodies diluted in blocking buffer for 1 hr. at RT. For sections that were stained with biotinylated secondary antibodies, signal development was accomplished by using the DAB Substrate Kit (Vector Laboratories).
# Flow Cytometry Staining and Analysis—Single cell suspensions (10^6 cells in 100 μL total volume) were incubated with Aqua Live Dead fixable stain (Life Technologies, Carlsbad, Calif.), FcR-blocking reagent (BD Biosciences, San Jose, Calif.) and fluorescently labeled antibodies and incubated at 4° C. for 1 h. Primary antibodies were: BV605-F4/80 (clone BM8, Biolegend #123133, 1.25 μg/ml), Alexa 700-CD45 (clone 30-F11, eBioscience #56-0451, ×0.6 μg/ml), CD11b-APC (clone M1/70, eBioscience #17-0012, 0.3 μg/ml), FITC-Gr1 (clone RB6-8C5, eBioscience #11-5931, 3 μg/ml), eF780-CD3 (clone 145-2C11, eBioscience #47-0031, 5 μg/ml), PE-Dazzle-CD4 (clone RM4-5, Biolegend #100565, 0.4 μg/ml), and BV605-CD8 (clone 53-6.7, Biolegend #100743, 1.75 μg/ml). Multicolor FACS Analysis was performed on a BD Canto RUO 11 Color Analyzer. All data analysis was performed using the flow cytometry analysis program FloJo (Treestar).
structure (smiles),measurement,setting,value
"O=C(O)c1ccc(-c2ccc(/C=C3\SC(=S)N(Cc4ccccc4)C3=O)o2)cc1 [LA1, leukadherin 1]",LLC lung tumor growth in Itgam-/- mice,"LA1 6 mg/kg i.p. daily, Itgam-/- mice",not in Itgam−/− mice
same,LLC lung tumor growth in WT mice,"LA1 6 mg/kg i.p. daily, WT mice",inhibited murine LLC lung tumor growth in WT
same,CD8+ T cells in tumors,LLC tumors,increased the presence of CD8+ T cells
same,MHCII+ macrophages in tumors,LLC tumors,increased the presence of MHCII+ macrophages
same,expression of S100A8 and MMP9 in CD11b+ cells,LLC tumors,inhibited expression of S100A8 and MMP9 in CD11b+ cells in LLC tumors
same,numbers of SMA+ blood vessels in tumors,"tumors of FIGS. 5G, 5I and 5J (CL66, MDA-MB-231, LLC)",decreasing the numbers of SMA+blood vessels
